Values after ≈ are worked out from the molar mass of the structure shown.
What was measured:
[1] = Inhibition of cell adhesion of human KM12-HX cells to TNF-alpha stimulated HUVEC cells incubated for 30 mins with HUVEC cells followed by [3H]thymidine labeled KM12-HX cells addition measured after 30 mins by radioactivity assay; format: functional, cell-based
[2] = Antimitotic activity against human U373 cells assessed as inhibition of cell proliferation by measuring inhibitory dose incubated for 48 hrs by [3H]-thymidine incorporation based liquid scintillation counting method; format: functional; details: U373 MG, read-out: ID50 (the source's name)
MCF-10A = experiment: Cytotoxicity against human MCF-10A cells assessed as cell growth inhibition incubated for 3 days by MTT assay; format: functional, cell-based; details: 72 h
[3] = Cytotoxicity against mouse NIH/3T3 cells assessed as cell growth inhibition incubated for 3 days by MTT assay; format: toxicity, cell-based, NIH3T3
[4] = Antimitotic activity against rat RN 22 cells assessed as inhibition of cell proliferation by measuring inhibitory dose by [3H]-thymidine incorporation based […]; format: functional; details: read-out: ID50 (the source's name)
[5] = Antimitotic activity against rat Astrocytoma cell assessed as inhibition of cell proliferation by measuring inhibitory dose by [3H]-thymidine incorporation based […]; format: functional; details: read-out: ID50 (the source's name)
N2a = experiment: Antimitotic activity against mouse Neuro2a cells assessed as inhibition of cell proliferation by measuring inhibitory dose by [3H]-thymidine incorporation based […]; format: functional; details: read-out: ID50 (the source's name)
[6] = Antimitotic activity against rat Astrocyte cells assessed as inhibition of cell proliferation by measuring inhibitory dose by [3H]-thymidine incorporation based […]; format: functional; details: read-out: ID50 (the source's name)
T-24 [7] = experiment: Cytotoxicity against human T24 cells assessed as cell viability at 12.5 uM in presence of doxorubicin; format: functional; details: read-out: Activity
MOLT-4 = experiment: Cytotoxicity against human MOLT-4 cells; format: functional, cell-based
[8] = Cytotoxicity against human HEK293F cells; format: toxicity, cell-based
T-24 [9] = experiment: Cytotoxicity against human T24 cells assessed as cell viability; format: functional
MKN-45 = experiment: Cytotoxicity against human MKN-45 cells; format: functional, cell-based
SMMC-7721 = experiment: Cytotoxicity against human SMMC-7721 cells assessed as inhibition of cell growth incubated for 30 mins by MTT colorimetric assay; format: functional, cell-based; details: SMMC-7721, 0.5 h
MCF7 [10] = experiment: Cytotoxicity against human MCF7 cells assessed as inhibition of cell growth incubated for 30 mins by MTT colorimetric assay; format: functional, cell-based; details: MCF7, 0.5 h
MG-63 = experiment: Cytotoxicity against human MG-63 cells assessed as inhibition of cell growth incubated for 30 mins by MTT colorimetric assay; format: functional, cell-based; details: MG-63, 0.5 h
[11] = Cytotoxicity against human SKW-3 cells assessed as inhibition of cell growth incubated for 72 hrs by MTT assay; format: functional, cell-based; details: SKW3, 72 h
[12] = Cytotoxicity against human JMSU-1 cells assessed as inhibition of cell growth incubated for 72 hrs by MTT assay; format: functional, cell-based; details: JMSU-1, 72 h
BV-173 = experiment: Cytotoxicity against human BV-173 cells assessed as inhibition of cell growth incubated for 72 hrs by MTT assay; format: functional, cell-based; details: BV-173, 72 h
MCF7 [13] = experiment: Antiproliferative activity against human MCF7 cells assessed as cell growth inhibition by measuring minimum inhibitory concentration incubated for 48 hrs by MTT assay; format: functional
HL-60 = experiment: Cytotoxicity against human HL-60 cells assessed as inhibition of cell growth incubated for 72 hrs by MTT assay; format: functional, cell-based; details: HL-60, 72 h
Ca-Ski = experiment: Cytotoxicity against human Ca-Ski cells assessed as inhibition of cell growth incubated for 24 hrs by MTT assay; format: functional, cell-based
MDA-MB-231 [14] = experiment: Cytotoxicity against human MDA-MB-231 cells assessed as cell growth inhibition incubated for 48 hrs by crystal violet staining based spectrofluorimeter assay; format: functional; details: MDA-MB-231, 48 h
MDA-MB-231 [15] = experiment: Inhibition of cell migration in human MDA-MB-231 cells incubated upto 48 hrs by inverted microscopic analysis; format: functional
HeLa = experiment: Cytotoxicity against human HeLa cells assessed as inhibition of cell growth incubated for 24 hrs by MTT assay; format: functional, cell-based
CCRF S-180 [16] = experiment: Antitumor activity against mouse CCRF S-180 cells implanted in Kunming mouse assessed as inhibition of tumor growth at 4 mg/kg,ip administered for 9 consecutive days; format: functional
CCRF S-180 [17] = experiment: Antitumor activity against mouse CCRF S-180 cells implanted in Kunming mouse assessed as inhibition of tumor growth at 1 mg/kg,ip administered for 9 consecutive days; format: functional
CCRF S-180 [18] = experiment: Antitumor activity against mouse CCRF S-180 cells implanted in Kunming mouse assessed as inhibition of tumor growth at 2 mg/kg,ip administered for 9 consecutive days; format: functional

Q: Which IC50 [1] does the source give for `CCCCCCCCCCCCCCC(CCCCCCCCCCCCCC)CO[C@@H]1O[C@H](CO)[C@@H](O[C@@H]2O[C@H](CO)[C@H](O)[C@H](OS(=O)(=O)O)[C@H]2O)[C@H](O[C@@H]2O[C@@H](C)[C@@H](O)[C@@H](O)[C@@H]2O)[C@H]1O` here?
A: 300 µM

Q: For `CCCCCCCCO[C@H]1O[C@H](COCC(CO)(CO)CO)[C@@H](O)[C@H](O)[C@H]1NC(C)=O`, which IC50 [2] is on record?
A: 43 µM

Q: Which IC50 (MCF-10A) does the source give for `C/C=C(\C)C(=O)O[C@@H]1[C@@H](O)[C@@H]2O[C@H]3[C@H](O[C@@H](CCCCC)CCCCCCC(=O)CCC(=O)OC[C@@H](O2)[C@H]1OC(=O)/C=C/c1ccccc1)O[C@H](C)[C@H](OC(C)=O)[C@@H]3O` here?
A: 0.0054 µM

Q: And the IC50 at 3 days [3]?
A: 0.0168 µM

Q: Which results are given for `CO[C@@H]1O[C@H](CO)[C@@H](O[C@@H]2O[C@H](CO)[C@H](O)[C@H](O[C@H]3O[C@H](CO)[C@H](O)[C@H](O)[C@H]3NC(C)=O)[C@H]2O)[C@H](O[C@@H]2O[C@@H](C)[C@@H](O)[C@@H](O)[C@@H]2O)[C@H]1O`?
A: IC50 [4]: 24 µM; IC50 [5]: 24 µM; IC50 (N2a): 24 µM; IC50 [6]: 24 µM

Q: Which viability at 12.5 µM (T-24 [7]) does the source give for `CCCCCCCC(=O)O[C@H]1[C@H](OC[C@H](O)[C@@H](O)[C@@H](O)[C@H](O)[C@H](O)CO)O[C@H](COC(=O)CCCCC)[C@@H](OC(=O)CCCCC)[C@@H]1OC(=O)CCCCC` here?
A: 36.9%

Q: And the IC50 (MOLT-4)?
A: 8.1 µM

Q: What about the IC50 [8] of the same compound?
A: 21.8 µM

Q: And the Activity (T-24 [9])?
A: 57.3%

Q: What about the IC50 (MKN-45) of the same compound?
A: 16 µM

Q: Which results are given for `CCCCC[C@@H](CCCCCCCCCC(=O)O[C@H]1[C@H](O[C@@H](CNc2ccc(OC)cc2)[C@@H](O)[C@H](O)[C@H](O)CO)O[C@@H](C)[C@H](OC(=O)[C@@H](C)[C@@H](C)O)[C@H]1O[C@@H]1O[C@@H](C)[C@H](O)[C@@H](O)[C@H]1O)O[C@@H]1OC[C@@H](O)[C@H](O)[C@H]1O[C@@H]1O[C@H](CO)[C@@H](O)[C@H](O)[C@H]1O[C@@H]1O[C@@H](C)[C@H](OC(=O)[C@H](C)[C@@H](C)O)[C@@H](O[C@@H]2O[C@@H](C)[C@H](O)[C@@H](O)[C@H]2O)[C@H]1OC(=O)CCCCCCCCC[C@@H](O)CCC`?
A: IC50 (SMMC-7721): 9.78 µg/mL (≈ 5.29 µM); IC50 (MCF7 [10]): 8.72 µg/mL (≈ 4.72 µM); IC50 (MG-63): 10.9 µg/mL (≈ 5.9 µM)

Q: With `CCCCCCCCCC[C@@H](CC(=O)O)OC(=O)C[C@H](CCCCCCCCCC)O[C@@H]1O[C@@H](C)[C@H](O)[C@@H](O)[C@H]1O` as the compound, how does the IC50 [11] read?
A: 54 µM

Q: And the IC50 [12]?
A: 60 µM

Q: And the IC50 (BV-173)?
A: 50 µM

Q: And the MIC (MCF7 [13])?
A: 6.25 µg/mL (≈ 10.6 µM)

Q: What about the IC50 (HL-60) of the same compound?
A: 67 µM

Q: For `CC(=O)OC[C@H]1O[C@H]2O[C@@H](C)CCCCCC/C=C\CCCCCCCC(=O)O[C@@H]3[C@@H](O)[C@H](O[C@@H]2[C@@H](O)[C@@H]1O)O[C@H](COC(C)=O)[C@H]3O`, which IC50 (Ca-Ski) is on record?
A: 25.3 µg/mL (≈ 36.8 µM)

Q: And the IC50 (MDA-MB-231 [14])?
A: 21.7 µM

Q: What about the “inhibition (INH)” value (MDA-MB-231 [15]) of the same compound?
A: 41.5%

Q: What about the IC50 (HeLa) of the same compound?
A: 12.2 µg/mL (≈ 17.8 µM)

Q: For `CCCCCCCCCCCCCO[C@@H]1O[C@H](CO[C@@H]2O[C@H](CO)[C@@H](O[C@@H]3O[C@H](CO[C@@H]4O[C@H](CO)[C@@H](O)[C@H](O)[C@H]4O)[C@@H](O)[C@H](O[C@@H]4O[C@H](CO)[C@@H](O)[C@H](O)[C@H]4O)[C@H]3O)[C@H](O)[C@H]2O)[C@@H](O)[C@H](O[C@@H]2O[C@H](CO)[C@@H](O[C@@H]3O[C@H](CO)[C@H](O)[C@H](O)[C@H]3O)[C@H](O)[C@H]2O)[C@H]1O`, which inhibition in vivo at 4 mg/kg (CCRF S-180 [16]) is on record?
A: 37.9%

Q: What about the inhibition in vivo at 1 mg/kg (CCRF S-180 [17]) of the same compound?
A: 39.1%

Q: What about the inhibition in vivo at 2 mg/kg (CCRF S-180 [18]) of the same compound?
A: 39.9%
